Conditions: Liquid; for mass density: Vibrating tube method; for vapor or sublimation pressure: Closed cell (Static) method

FC(F)=C(F)C(F)(F)F [hexafluoropropene]
Conditions	mass density [kg/m3]
263.49 K, 9976.6 kPa	1506.02
283.17 K, 467.7 kPa	1382.09
283.17 K, 472.9 kPa	1382.09
283.17 K, 473.5 kPa	1382.21
283.17 K, 478.6 kPa	1382.26
283.17 K, 483 kPa	1382.29
283.17 K, 491.9 kPa	1382.32
283.17 K, 493.1 kPa	1382.39
283.17 K, 504.9 kPa	1382.43
283.17 K, 526.8 kPa	1382.57
283.17 K, 533.6 kPa	1382.61
283.17 K, 540.4 kPa	1382.7
283.17 K, 548.7 kPa	1382.78
283.17 K, 574 kPa	1382.98
283.17 K, 583 kPa	1382.99
283.17 K, 602 kPa	1383.21
283.17 K, 637 kPa	1383.38
283.17 K, 662.9 kPa	1383.6
283.17 K, 691.4 kPa	1383.74
283.17 K, 716 kPa	1383.92
283.17 K, 731.4 kPa	1384.12
283.17 K, 751.9 kPa	1384.27
283.17 K, 766.8 kPa	1384.29
283.17 K, 790.1 kPa	1384.57
283.17 K, 833.3 kPa	1384.9
283.17 K, 856.3 kPa	1384.98
283.17 K, 882.3 kPa	1385.18
283.17 K, 902.7 kPa	1385.3
283.17 K, 924.8 kPa	1385.58
283.17 K, 945.6 kPa	1385.66
283.17 K, 965.5 kPa	1385.81
283.17 K, 988.4 kPa	1386.02
283.17 K, 1017 kPa	1386.11
283.17 K, 1047.4 kPa	1386.36
283.17 K, 1072.3 kPa	1386.5
283.17 K, 1098.6 kPa	1386.88
283.17 K, 1125.8 kPa	1386.96
283.17 K, 1165.1 kPa	1387.2
283.17 K, 1199.3 kPa	1387.58
283.17 K, 1251 kPa	1387.98
283.17 K, 1286 kPa	1388.12
283.17 K, 1320.8 kPa	1388.36
283.17 K, 1354.8 kPa	1388.62
283.17 K, 1394.7 kPa	1388.89
283.17 K, 1427.8 kPa	1389.18
283.17 K, 1463.5 kPa	1389.43
283.17 K, 1507.4 kPa	1389.74
283.17 K, 1549.2 kPa	1389.92
283.17 K, 1591 kPa	1390.31
283.17 K, 1634.6 kPa	1390.61
283.17 K, 1720.9 kPa	1391.22
283.17 K, 1765.5 kPa	1391.52
283.17 K, 1806 kPa	1391.83
283.17 K, 1849 kPa	1391.99
283.17 K, 1895 kPa	1392.44
283.17 K, 1935.4 kPa	1392.64
283.17 K, 1975.7 kPa	1392.98
283.17 K, 2022.9 kPa	1393.24
283.17 K, 2076.3 kPa	1393.62
283.17 K, 2128.3 kPa	1394
283.17 K, 2174.7 kPa	1394.46
283.17 K, 2219 kPa	1394.73
283.17 K, 2306.2 kPa	1395.23
283.17 K, 2350.5 kPa	1395.59
283.17 K, 2406.1 kPa	1396.02
283.17 K, 2455.4 kPa	1396.26
283.17 K, 2506.6 kPa	1396.64
283.17 K, 2551.5 kPa	1396.81
283.17 K, 2593.9 kPa	1397.25
283.17 K, 2644 kPa	1397.48
283.17 K, 2684 kPa	1397.73
283.17 K, 2734.9 kPa	1398.07
283.17 K, 2785.7 kPa	1398.39
283.17 K, 2848.1 kPa	1398.74
283.17 K, 2900.4 kPa	1399.13
283.17 K, 2951 kPa	1399.5
283.17 K, 3020.7 kPa	1400.01
283.17 K, 3136.8 kPa	1400.76
283.17 K, 3180.2 kPa	1400.96
283.17 K, 3236.8 kPa	1401.44
283.17 K, 3291.9 kPa	1401.74
283.17 K, 3350 kPa	1402.05
283.17 K, 3394.2 kPa	1402.39
283.17 K, 3434.9 kPa	1402.61
283.17 K, 3476.3 kPa	1403.01
283.17 K, 3535.7 kPa	1403.26
283.17 K, 3591.4 kPa	1403.66
283.17 K, 3653.3 kPa	1403.98
283.17 K, 3709.6 kPa	1404.3
283.17 K, 3821.9 kPa	1405.06
283.17 K, 3864.3 kPa	1405.48
283.17 K, 3907.8 kPa	1405.66
283.17 K, 3949 kPa	1405.94
283.17 K, 4020.4 kPa	1406.43
283.17 K, 4078.5 kPa	1406.71
283.17 K, 4127.6 kPa	1407.05
283.17 K, 4182.4 kPa	1407.4
283.17 K, 4239.6 kPa	1407.72
283.17 K, 4293.4 kPa	1408.17
283.17 K, 4409.9 kPa	1408.82
283.17 K, 4465.6 kPa	1409.18
283.17 K, 4516.2 kPa	1409.47
283.17 K, 4620.4 kPa	1410.09
283.17 K, 4676.1 kPa	1410.42
283.17 K, 4728.4 kPa	1410.73
283.17 K, 4783.7 kPa	1411.1
283.17 K, 4835.3 kPa	1411.33
283.17 K, 4889.5 kPa	1411.65
283.17 K, 4943.6 kPa	1412.08
283.17 K, 4996 kPa	1412.33
283.17 K, 5057.6 kPa	1412.68
283.17 K, 5126.3 kPa	1413.1
283.17 K, 5167.5 kPa	1413.34
283.17 K, 5237.5 kPa	1413.76
283.17 K, 5303.9 kPa	1414.14
283.17 K, 5372.7 kPa	1414.61
283.17 K, 5504.1 kPa	1415.44
283.17 K, 5572.6 kPa	1415.73
283.17 K, 5644.7 kPa	1416.12
283.17 K, 5720.2 kPa	1416.66
283.17 K, 5786.5 kPa	1416.98
283.17 K, 5855.5 kPa	1417.42
283.17 K, 5920.9 kPa	1417.74
283.17 K, 5997.2 kPa	1418.2
283.17 K, 6065.1 kPa	1418.58
283.17 K, 6130.5 kPa	1419
283.17 K, 6196 kPa	1419.33
283.17 K, 6260.9 kPa	1419.73
283.17 K, 6326.3 kPa	1420.11
283.17 K, 6398.7 kPa	1420.44

Conditions	vapor or sublimation pressure [kPa]
268.24 K	272
273.24 K	326.8
278.21 K	389
278.22 K	388.6

— the NIST ThermoML archive (doi:10.1021/je900596d)
